Test results taken from patent US10100061B2, “Oxazepine compound and agricultural/horticultural insecticide containing said compound as active ingredient, and method for using the same” (NIHON NOHYAKU CO., LTD., priority 2014, dated 2018).

System: Small Brown Planthopper (Laodelphax Striatellus)
Experiment: Test of insecticidal efficacy against small brown planthopper (Test Example 2)
Type: in vivo
Conditions: 500 ppm, rice plants soaked 30 seconds, third-instar larvae, eight days after inoculation; criteria same as in Test Example 1
Text: Test of Insecticidal Efficacy Against Small Brown Planthopper (Laodelphax Striatellus)

Row | SMILES | Corrected insect mortality, judgment
1 | CN1C(=O)c2nn(-c3ccc[n+]([O-])c3)cc2Oc2ccccc21 [9-1] | A to D
2 | N#CCN1C(=O)c2nn(-c3cccnc3)cc2Oc2cc(C(F)(F)F)ccc21 [1-36] | A to D
3 | CCCCCCCCCCCCN1C(=O)c2nn(-c3cccnc3)cc2Oc2ccc(F)cc21 [8-37] | A to D
4 | COCN1C(=O)c2nn(-c3cccnc3)cc2Oc2ccccc21 [1-67] | A to D
5 | S=C1Nc2ccccc2Oc2cn(-c3cccnc3)nc21 [2-1] | A to D
6 | CC(C(=O)OC(C)(C)C)N1C(=O)c2nn(-c3cccnc3)cc2Oc2cc(F)ccc21 (stereo not shown) [8-32] | A to D
7 | CC(C#N)N1C(=O)c2nn(-c3cccnc3)cc2Oc2ccccc21 (stereo not shown) [1-77] | A to D
8 | CN1C(=O)c2nn(-c3cccnc3)cc2Oc2cc(C#N)ccc21 [1-47] | A to D
9 | CCCCCCCCN1C(=O)c2nn(-c3cccnc3)cc2Oc2ccccc21 [1-53] | A to D
10 | Cc1ccc2c(c1)Oc1cn(-c3cccnc3)nc1C(=O)N2CC#N [1-33] | A to D
11 | C=CCN1C(=O)c2nn(-c3cccnc3)cc2Oc2c1c(C)nn2C [14-3] | A to D
12 | O=C1Nc2cc(Br)ccc2Oc2cn(-c3cccnc3)nc21 [8-62] | A to D
13 | N#CCN1C(=O)c2nn(-c3cccnc3)cc2Oc2ccc(Cl)cc21 [8-57] | A to D
14 | Fc1ccc2c(c1)N=C(N1CCOCC1)c1nn(-c3cccnc3)cc1O2 [11-15] | A to D
15 | CCOCN1C(=O)c2nn(-c3cccnc3)cc2Oc2ccccc21 [8-21] | A to D
16 | COCOC1=Nc2ccccc2Oc2cn(-c3cccnc3)nc21 [11-16] | A to D
17 | C=CCN1C(=O)c2nn(-c3cccnc3)cc2Oc2cc(F)ccc21 [8-23] | A to D
18 | C=CCN1C(=O)c2nn(-c3cccnc3)cc2Oc2ccc(Br)cc21 [8-64] | A to D
19 | C#CCN1Cc2nn(-c3cccnc3)cc2Oc2ccccc21 [3-3] | A to D
20 | Cc1ccc2c(c1)Oc1cn(-c3cccnc3)nc1C(=O)N2C [1-31] | A to D
21 | C=CCN1C(=O)c2nn(-c3cccnc3)cc2Oc2ccc(Cl)cc21 [8-58] | A to D
22 | N#CCN1C(=O)c2nn(-c3cccnc3)cc2Oc2ccc(Br)cc21 [8-66] | A to D
23 | CN(C)CCN1C(=O)c2nn(-c3cccnc3)cc2Oc2ccccc21 [1-69] | A to D

System: Green Peach Aphid (Myzus Persicae)
Experiment: Test of preventive value against green peach aphid (Test Example 1)
Type: in vivo
Conditions: 500 ppm, sprayed over stems and leaves of potted Chinese cabbages, sixth day after spraying
Description: Test of Preventive Value Against Green Peach Aphid (Myzus Persicae)
Chinese cabbages were planted in plastic pots, each with a size of 8 cm in diameter and 8 cm in height, after which green peach aphids were propagated and the number of parasitic insects was examined in each pot. An oxazepine compound or salt thereof expressed by General Formula (I) according to the present invention was dispersed in water and the dispersion was diluted to 500 ppm in the form of a reagent, after which the reagent was sprayed over stems and leaves of potted Chinese cabbages and let dry under wind, and the pots were kept in a greenhouse, and on the sixth day after the reagent was sprayed, the number of green peach aphids living parasitically on each Chinese cabbage was examined and the preventive value was calculated based on the formula below, and judgment was made according to the criteria below. Preventive value=100−{(T×Ca)/(Ta×C)}×100 [Mathematical Formula 1] • Ta: Number of parasitic insects inside the treatment area before spraying • T: Number of parasitic insects inside the treatment area after spraying • Ca: Number of parasitic insects inside the non-treatment area before spraying • C: Number of parasitic insects inside the non-treatment area after spraying Judgment Criteria • A - - - Preventive value: 100% • B - - - Preventive value: 99%˜90% • C - - - Preventive value: 89%˜80% • D - - - Preventive value: 79%˜50%

Row | SMILES | Preventive value, judgment
24 | CN1C(=O)c2nn(-c3ccc[n+]([O-])c3)cc2Oc2ccccc21 [9-1] | A to D
25 | C[S+]([O-])CN1C(=O)c2nn(-c3cccnc3)cc2Oc2ccc(F)cc21 (stereo not shown) [8-48] | A to D
26 | N#CCN1C(=O)c2nn(-c3cccnc3)cc2Oc2cc(C(F)(F)F)ccc21 [1-36] | A to D
27 | O=CN1C(=O)c2nn(-c3cccnc3)cc2Oc2ccc(F)cc21 [8-53] | A to D
28 | O=C1c2nn(-c3cccnc3)cc2Oc2ccccc2N1CC1OCCO1 [8-11] | A to D
29 | CCCCCCCCCCCCN1C(=O)c2nn(-c3cccnc3)cc2Oc2ccc(F)cc21 [8-37] | A to D
30 | O=CCN1C(=O)c2nn(-c3cccnc3)cc2Oc2ccccc21 [8-15] | A to D
31 | COCN1C(=O)c2nn(-c3cccnc3)cc2Oc2ccccc21 [1-67] | A to D
32 | CC(C#N)N1C(=O)c2nn(-c3cccnc3)cc2Oc2ccc(F)cc21 (stereo not shown) [8-50] | A to D
33 | S=C1Nc2ccccc2Oc2cn(-c3cccnc3)nc21 [2-1] | A to D
34 | CN1CCN(C2=Nc3cc(F)ccc3Oc3cn(-c4cccnc4)nc32)CC1 [11-13] | A to D
35 | CC(C(=O)OC(C)(C)C)N1C(=O)c2nn(-c3cccnc3)cc2Oc2cc(F)ccc21 (stereo not shown) [8-32] | A to D
36 | CC(C#N)N1C(=O)c2nn(-c3cccnc3)cc2Oc2ccccc21 (stereo not shown) [1-77] | A to D
37 | O=C1c2nn(-c3cccnc3)cc2Oc2cc(F)ccc2N1CC1CC1 [8-27] | A to D
38 | CN1C(=O)c2nn(-c3cccnc3)cc2Oc2cc(C#N)ccc21 [1-47] | A to D
39 | CCCCCCCCN1C(=O)c2nn(-c3cccnc3)cc2Oc2ccccc21 [1-53] | A to D
40 | O=C1c2nn(-c3cccnc3)cc2Oc2ccc(F)cc2N1CC1CC1 [8-36] | A to D
41 | Cc1ccc2c(c1)Oc1cn(-c3cccnc3)nc1C(=O)N2CC#N [1-33] | A to D
42 | O=C1Nc2ccccc2Nc2cn(-c3cccnc3)nc21 [10-1] | A to D
43 | COCN1C(=O)c2nn(-c3cccnc3)cc2Oc2c(F)cccc21 [8-22] | A to D
44 | O=C1Nc2cc(Br)ccc2Oc2cn(-c3cccnc3)nc21 [8-62] | A to D
45 | N#CC(F)N1C(=O)c2nn(-c3cccnc3)cc2Oc2cc(F)ccc21 (stereo not shown) [8-33] | A to D

Row | SMILES | Preventive value, judgment
46 | C#CCN1C(=O)c2nn(-c3cccnc3)cc2Oc2c1c(C)nn2C [14-4] | A to D
47 | C#CCN1C(=O)c2nn(-c3cccnc3)cc2Oc2ccc(Br)cc21 [8-65] | A to D
48 | O=C1c2nn(-c3cccnc3)cc2Oc2ccc(F)cc2N1CC(F)(F)F [8-39] | A to D
49 | N#CCN1C(=O)c2nn(-c3cccnc3)cc2Oc2sccc21 [15-4] | A to D
50 | O=C1Nc2cccc(Cl)c2Oc2cn(-c3cccnc3)nc21 [1-22] | A to D
51 | CN1C(=O)c2nn(-c3cccnc3)cc2Oc2sccc21 [15-2] | A to D
52 | c1cncc(-n2cc3c(n2)C(N2CCOCC2)=Nc2ccccc2O3)c1 [11-14] | A to D
53 | C[S+]([O-])CN1C(=O)c2nn(-c3cccnc3)cc2Oc2ccccc21 (stereo not shown) [8-3] | A to D
54 | CN1Cc2nn(-c3cccnc3)cc2Oc2ccccc21 [3-2] | A to D
55 | CN1C(=O)c2nn(-c3cccnc3)cc2Oc2cc(I)ccc21 [8-67] | A to D
56 | N#CCCCN1C(=O)c2nn(-c3cccnc3)cc2Oc2cc(F)ccc21 [8-30] | A to D
57 | CN1CCN(C2=Nc3ccccc3Oc3cn(-c4cccnc4)nc32)CC1 [11-12] | A to D
58 | O=C1c2nn(-c3cccnc3)cc2Oc2ccccc2N1CCS(=O)(=O)CCC(F)(F)F [8-19] | A to D
59 | CC(=O)OCN1C(=O)c2nn(-c3cccnc3)cc2Oc2ccccc21 [8-9] | A to D
60 | O=C1Nc2ccc(Br)cc2Oc2cn(-c3cccnc3)nc21 [8-60] | A to D
61 | CN1C(=O)c2nn(-c3cccnc3)cc2Oc2cccc(Cl)c21 [8-59] | A to D
62 | CSCN1C(=O)c2nn(-c3cccnc3)cc2Oc2ccc(F)cc21 [8-47] | A to D
63 | NC(=O)CN1C(=O)c2nn(-c3cccnc3)cc2Oc2ccc(F)cc21 [8-52] | A to D
64 | CN1C(=O)c2nn(-c3cccnc3)cc2Oc2cc(Br)ccc21 [8-61] | A to D
65 | CC(C)=CCN1C(=O)c2nn(-c3cccnc3)cc2Oc2ccccc21 [8-6] | A to D
66 | N#CCN1C(=O)c2nn(-c3cccnc3)c(Cl)c2Oc2cc(F)ccc21 [9-5] | A to D
67 | N#CCCCN1C(=O)c2nn(-c3cccnc3)cc2Oc2ccc(F)cc21 [8-51] | A to D

Row | SMILES | Preventive value, judgment
68 | C[Si](C)(C)C#CC1=Nc2ccccc2Oc2cn(-c3cccnc3)nc21 [11-4] | A to D
69 | CN1C(=O)c2nn(-c3cncc(Br)c3)cc2Oc2ccccc21 [1-83] | A to D
70 | CCC(C)N1C(=O)c2nn(-c3cccnc3)cc2Oc2cc(F)ccc21 (stereo not shown) [8-29] | A to D
71 | CC#CCN1C(=O)c2nn(-c3cccnc3)cc2Oc2ccccc21 [8-5] | A to D
72 | O=C1c2nn(-c3cccnc3)cc2Oc2ccccc2N1CC[S+]([O-])CCC(F)(F)F (stereo not shown) [8-18] | A to D
73 | CN1C(=O)c2nn(-c3cccnc3)cc2Oc2ccc(Br)cc21 [8-63] | A to D
74 | C#CCN1C(=O)c2nn(-c3cccnc3)cc2Oc2sccc21 [15-3] | A to D
75 | CN(C)C(=O)CN1C(=O)c2nn(-c3cccnc3)cc2Oc2ccccc21 [8-7] | A to D
76 | CC(C)CN1C(=O)c2nn(-c3cccnc3)cc2Oc2cc(F)ccc21 [8-28] | A to D
77 | NC(=O)CCN1C(=O)c2nn(-c3cccnc3)cc2Oc2ccccc21 [8-8] | A to D
78 | O=C1Nc2ccsc2Oc2cn(-c3cccnc3)nc21 [15-1] | A to D
79 | O=C1c2nn(-c3cccnc3)cc2Oc2ccc(F)cc2N1CC1OCCO1 [8-43] | A to D
80 | N#CCN1Cc2nn(-c3cccnc3)cc2Oc2cc(F)ccc21 [3-5] | A to D
81 | Cc1nn(C)c2c1N(C)C(=O)c1nn(-c3cccnc3)cc1O2 [14-2] | A to D
82 | O=C1c2nn(-c3cccnc3)cc2Oc2ccccc2N1CCSCCC(F)(F)F [8-17] | A to D
83 | CON=CCN1C(=O)c2nn(-c3cccnc3)cc2Oc2ccccc21 [8-16] | A to D
84 | CN(C)C(=O)N1C(=O)c2nn(-c3cccnc3)cc2Oc2ccccc21 [8-14] | A to D
85 | O=C1c2nn(-c3cccnc3)cc2Oc2ccc(F)cc2N1CCN1CCOCC1 [8-44] | A to D
86 | CC(=O)N1Cc2nn(-c3cccnc3)cc2Oc2ccc(F)cc21 [3-9] | A to D
87 | CN1C(=O)c2nn(-c3cccnc3)cc2Oc2ccc(Cl)cc21 [8-55] | A to D
88 | O=C1Nc2ccc(Cl)cc2Oc2c1nn(-c1cccnc1)c2Cl [9-4] | A to D
